Source: patent US12180159B2, “Activators of the unfolded protein response” (The Board of Trustees of the University of Illinois, priority 2018, dated 2024)

Experiments:
TDG cells (T47DERαD538G) = assay: Trypan Blue exclusion cell death assay, TDG cells; type: cell-based, human; details: dose response, 24 hours, TDG-Luc cells
Excerpt: TRYPAN BLUE: For decades, viable cells have been measured by their ability to exclude the dye Trypan Blue. […] Dead cells, which have lost membrane integrity, take up the dye and are blue. Thus, the percentage of dead cells is the percentage of cells that are Trypan Blue positive out of the total cell population. Quantitative assessment of Trypan Blue uptake uses a cell counter from Fisher. Since the assay is instrument based, there is no observer bias in determining the percentage of Trypan Blue positive cells.
TRYPAN BLUE ASSAYS: Assays are performed on cells in 6 well plates: 300,000 cells are plated in each well of a 6 well plate in 3 ml of medium. After 24 hours, the DMSO vehicle or the indicated compound is added (in 1000th of the vol.) The cells incubated for an additional 24 hours, and then harvested in 0.25 ml of trypsin, followed after harvest by 0.75 ml of medium. The cells are spun down and resuspended in 100-200 μl of medium left that is over the cell pellet (resuspend cells by pipetting up and down a few times). Add 10 μl to 10 μl of trypan blue. Then 10 μl is inserted into the counting slide. After inserting the slide into the Fisher TC20 counting is automatic (these many cells are needed because an accurate ratio of Trypan Blue positive to Trypan Blue negative cells requires about 200 cells in the field the instrument counts).
The Trypan Blue cell death assay was used to evaluate the ability of the active enantiomer of C-105 [(−)-105] to kill ERα positive TDG-Luc cells. For all studies, 300,000 TDG-Luc cells/well in 10% FBS were plated in a 6 well plate in triplicate. 24 hours after plating, the indicated concentrations the active enantiomer of (−)-105, or BHPI (top) ICI, or OHT (Lower left) or (+)-105 (lower right) were added. After 24 hours, the cells were harvested, and the % dead cells was determined by automated Trypan Blue exclusion using the Countess II automated hemocytometer. Percentage of viable cells was calculated by doing 100−(Cell Death %). (n=3±SEM).
TDG cells were incubated for 24 hours with 75 nM of BHPI or 75 nM of each of the indicated test compounds: 4, 6 and (±)-105 (enantiomers not separated). Cell death was determined using the instrument-based Trypan Blue exclusion assay. Structures are in the Synthesis section. […] (n=3±SEM).

[1] = test system: ATP levels in TYS-Luc cells; assay: Intracellular ATP levels; type: cell-based, human; details: 1,000 nM
Description: TYS-Luc cells were maintained DMSO vehicle (Veh), 1,000 nM BHPI, 1,000 nM (−)-105 with and without 10,000 nM thapsigargin (THG) for the indicated times. ATP levels were determines using a kit and relative ATP levels were from a standard curve. […] (n=3±SEM).

O=C1Nc2c(C(F)(F)F)cccc2C1(c1ccc(O)cc1)c1ccc(OC(F)(F)F)cc1 (single isomer, unassigned; (-)) [(−)-105, 3-(4-hydroxyphenyl)-3-(4-(trifluoromethoxy)phenyl)-7-(trifluoromethyl)indolin-2-one]
killing of TDG-Luc cells (TDG cells (T47DERαD538G)): superior to BHPI
intracellular ATP levels [1]: reduces intracellular ATP levels
